In patent US20260250257A1, “ANTIBACTERIAL AND SYNERGISTIC ACTIVE COMPOUND AND USE THEREOF” (EAST CHINA UNIVERSITY OF SCIENCE AND TECHNOLOGY, priority 2023, published 2026):

Columns and labels:
Format in all cases: cell-based
[1] = system: ATCC13883 strain (Klebsiella pneumoniae); assay: Broth microdilution, antibacterial activity of the compound used alone
From the text: (§1) The broth microdilution method was used to test the antibacterial effects of the compounds of the present invention against various Gram-negative bacterial strains when used alone.

[2] = system: ATCC25922 strain (Escherichia coli); assay: as above
From the text: as §1

[3] = system: ATCC9027 strain (Pseudomonas aeruginosa); assay: as above
From the text: as §1

[4] = system: ATCC19606 strain (Acinetobacter baumannii); assay: as above
From the text: as §1

[5] = system: ATCC13883 strain (Klebsiella pneumoniae); assay: Checkerboard antibacterial synergistic activity test with polymyxin E (FIC); design: key: FIC≤0.5 synergy; 0.5–1 additive; 1–2 indifferent; ≥2 antagonism; details: combined with polymyxin E
Method: (§2) Polymyxin E was diluted in sterile MH broth medium to concentrations of 16, 8, 4, 2, 1, 0.5, 0.25, 0.125, 0.0625, 0.031, and 0.015 μg/ml, and the drug to be tested was diluted to concentrations of 256, 128, 64, 32, 16, 8, and 4 μg/ml. According to the checkerboard method, combinations of the drug to be tested and polymyxin at different concentrations in ascending order were placed into a 96-well plate, and corresponding blank control groups were set up. 50 μl of the drug solution was added to each well, then 100 μl of bacterial liquid was added, and incubated in a 37° C. incubator for 16 hours. […] Calculation and judgment criteria:
(§3) Fractional Inhibitory Concentration (FIC) is calculated as follows: […]
(§4) Judgment criteria: FIC≤0.5: synergistic effect; 0.5<FIC<1: additive effect; 1<FIC<2: indifferent effect; FIC≥2: antagonistic effect.
(§5) In the table: ATCC19606 strain is Acinetobacter baumannii, ATCC25922 strain is Escherichia coli, ATCC13883 strain is Klebsiella pneumoniae, ATCC9027 strain is Pseudomonas aeruginosa. All four strains were purchased from ATCC.

[6] = system: ATCC25922 strain (Escherichia coli); assay: as above; design: key: FIC≤0.5 synergy; 0.5–1 additive; 1–2 indifferent; ≥2 antagonism; details: combined with polymyxin E
Method: as §2, §3, §4, §5

[7] = system: ATCC9027 strain (Pseudomonas aeruginosa); assay: as above; design: key: FIC≤0.5 synergy; 0.5–1 additive; 1–2 indifferent; ≥2 antagonism; details: combined with polymyxin E
Method: as §2, §3, §4, §5

[8] = system: ATCC19606 strain (Acinetobacter baumannii); assay: as above; design: key: FIC≤0.5 synergy; 0.5–1 additive; 1–2 indifferent; ≥2 antagonism; details: combined with polymyxin E
Method: as §2, §3, §4, §5

| SMILES | Antibacterial activity of the compound of Formula I, ATCC13883 [1] [µg/mL] | Antibacterial activity of the compound of Formula I, ATCC25922 [2] [µg/mL] | Antibacterial activity of the compound of Formula I, ATCC9027 [3] [µg/mL] | Antibacterial activity of the compound of Formula I, ATCC19606 [4] [µg/mL] | Synergistic activity (FIC value) ATCC13883 [5] | Synergistic activity (FIC value) ATCC25922 [6] | Synergistic activity (FIC value) ATCC9027 [7] | Synergistic activity (FIC value) ATCC19606 [8] |
| --- | --- | --- | --- | --- | --- | --- | --- | --- |
| NC(N)=Nc1nc(-c2cc(C(F)(F)F)c(O)c(C(F)(F)F)c2)co1 [Compound I-45] | 256 | 256 | 256 | 256 | 0.19 | 0.52 | 1.25 | 0.13 |
| CSc1cc2ccc(C)cn2c1-c1nc(N=C(N)N)sc1C [Compound I-126] | 256 | 256 | 256 | 256 | 0.13 | 0.2 | 0.28 | 0.04 |
| Clc1cc(Oc2ccc(Cl)cc2Cl)cc(-c2csc(N=C3NCCCN3)n2)c1 [Compound I-160] | 256 | 256 | 256 | 256 | 0.16 | 0.18 | 0.28 | 0.03 |
| Clc1cccc(-c2csc(N=C3NCCCN3)n2)c1Cl [Compound I-184] | 256 | 256 | 256 | 256 | 0.25 | 0.5 | 0.63 | 0.28 |
| NC(N)=Nc1nc(-c2cc(Cl)c(O)c(Cl)c2)co1 [Compound I-40] | 256 | 256 | 256 | 256 | 0.19 | 0.52 | 0.51 | 0.13 |
| CS(=O)(=O)Oc1ccc(-c2coc(N=C(N)N)n2)cc1 [Compound I-28] | 256 | 256 | 256 | 256 | 1.25 | 1.25 | 0.51 | 1.25 |
| COc1ccc(Oc2ccccc2-c2nc(N=C3NCCCN3)sc2C)c(C)c1 [Compound I-144] | 256 | 256 | 256 | 256 | 0.16 | 0.18 | 0.28 | 0.03 |
| CC(C)(C)c1cc(-c2csc(N=C(N)N)n2)cc(C(C)(C)C)c1 [Compound I-13] | 256 | 256 | 256 | 256 | 0.33 | 0.39 | 0.62 | 0.15 |
| Cc1oc(N=C2NCCCN2)nc1-c1cc(NS(C)(=O)=O)ccc1-c1ccco1 [Compound I-139] | 256 | 256 | 256 | 256 | 1.25 | 0.5 | 1.25 | 0.75 |
| CSc1cc2ccccn2c1-c1c[nH]c(N=C2NCCCN2)n1 [Compound I-190] | 256 | 256 | 256 | 256 | 1.25 | 1.25 | 1.25 | 0.75 |
| NC(N)=Nc1nc(-c2cccc(NC(=O)Nc3ccc(Cl)cc3Cl)c2)c(Cl)s1 [Compound I-133] | 256 | 256 | 256 | 256 | 0.19 | 0.04 | 0.04 | 0.38 |
| CSc1cc2c(Cl)cccn2c1-c1c[nH]c(N=C(N)N)n1 [Compound I-129] | 256 | 256 | 256 | 256 | 0.09 | 0.14 | 0.06 | 0.31 |
